Results on 8 compounds are retold here after ChEMBL document CHEMBL1155002, “Synthesis of phosphatidylated-monoterpene alcohols catalyzed by phospholipase D and their antiproliferative effects on human cancer cells” (2008).

The source made the active and inactive calls. No cut-off for these calls is given here.

For one experiment, the system named is PC-3. Kind of experiment: Antiproliferative activity against human PC3 cells assessed as reduction of cell viability after 72 hrs by WST-1 assay relative to control. Type of experiment: functional. Set-up: concentration or dose not given beside the values.
Conditions: not given
Regarding `CC(C)=CCC/C(C)=C/CO` [GERANIOL], the Activity is 10%.
For `C=C(C)[C@@H]1CC=C(CO)CC1` [PERILLYL ALCOHOL], the Activity is on record as 10%.
For `CC(C)=CCC/C(C)=C\CO` [NEROL], the Activity was determined as 10%.
The same measure, in the same setting: next, `C=C(C)C1CC=C(COP(=O)(O)OCC(COC=O)OC=O)CC1` (configuration not stated) [PHOSPHATIDYL PERILLYL ALCOHOL]: 10%; `CC1(C)C2CC=C(COP(=O)(O)OCC(COC=O)OC=O)C1C2` (configuration not stated) [PHOSPHATIDYL MYRTENOL]: 10%.
Take `CC1(C)C2CC=C(CO)C1C2` (configuration not stated) [MYRTENOL]: the Activity is given as 10%.

The test system of another experiment is PC-3. As to the kind of experiment: Antiproliferative activity against human PC3 cells assessed as reduction of cell viability at 400 uM after 72 hrs by WST-1 assay. Type of experiment: functional, cell-based.
Conditions: not given
For the compound `CC(C)=CCC/C(C)=C/CO` [GERANIOL], the outcome was inactive.
Still for that read-out and setting: next, `C=C(C)[C@@H]1CC=C(CO)CC1` [PERILLYL ALCOHOL]: “inactive”; `CC(C)=CCC/C(C)=C\CO` [NEROL]: “inactive”; `CC1(C)C2CC=C(CO)C1C2` (configuration not stated) [MYRTENOL]: “inactive”.

The subject of another experiment is HL-60. As to the kind of experiment: Antiproliferative activity against human HL60 cells at 400 uM by WST-1 assay. Type of experiment: functional, cell-based.
Conditions: not given
For `CC(C)=CCC/C(C)=C/CO` [GERANIOL], the outcome was inactive.
Same read-out and setting: next, `C=C(C)[C@@H]1CC=C(CO)CC1` [PERILLYL ALCOHOL]: “inactive”.
On to `CC(C)=CCC/C(C)=C\CO` [NEROL], for which the outcome was inactive.
On to `CC1(C)C2CC=C(CO)C1C2` (configuration not stated) [MYRTENOL], for which the result was inactive.

For the next experiment, the system named is HL-60. As to the kind of experiment: Antiproliferative activity against human HL60 cells by WST-1 assay. Type of experiment: functional, cell-based. The conditions noted are these: TDE = time-dependent effect.
On to `CC(C)=CCC/C(C)=C/CO` [GERANIOL], for which the Activity result is “tde”.
`C=C(C)[C@@H]1CC=C(CO)CC1` [PERILLYL ALCOHOL]: the Activity entry was “tde”.
For the compound `CC(C)=CCC/C(C)=C\CO` [NEROL], the Activity entry is “tde”.
Regarding `CC1(C)C2CC=C(CO)C1C2` (configuration not stated) [MYRTENOL], the Activity entry was “tde”.

For another experiment, the system named is PC-3. Kind of experiment: Antiproliferative activity against human PC3 cells assessed as cell viability at 100 uM after 72 hrs by WST-1 assay. Type of experiment: functional, cell-based.
Conditions: not given
In the case of `CC(C)=CCC/C(C)=C\COP(=O)(O)OCC(COC=O)OC=O` (configuration not stated), the result was Active.
On the same count and under the same terms, next, `CC(C)=CCC/C(C)=C/COP(=O)(O)OCC(COC=O)OC=O` (configuration not stated): “Active”.
As to `C=C(C)C1CC=C(COP(=O)(O)OCC(COC=O)OC=O)CC1` (configuration not stated) [PHOSPHATIDYL PERILLYL ALCOHOL], the outcome was Active.
Same read-out and setting: next, `CC1(C)C2CC=C(COP(=O)(O)OCC(COC=O)OC=O)C1C2` (configuration not stated) [PHOSPHATIDYL MYRTENOL]: “Active”.
